From patent publication US20250171451A1, “NOVEL HETEROCYCLIC COMPOUND AND PHARMACEUTICAL COMPOSITION COMPRISING SAME” (Samjin Pharmaceutical Co., Ltd., priority 2022, published 2025)

Assays:
[1] = test system: TEAD response element (TRE) luciferase reporter in MCF-7 cell lines; assay: TEAD response element (TRE) reporter assay; assay type: cell-based; settings: 0.2 μM compound, 24 hours, MCF-7 TEAD reporter cells, relative to vehicle (1% DMSO); for inhibition at 0.2 µM: Homo sapiens, MCF7
Procedure, shortened: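 MCF-7 cells stably carrying a TRE-driven firefly luciferase reporter, treated 24 h after plating with compound at 0.2 μM final (1% DMSO) in serum-free medium for 24 h. Luminescence expressed relative to vehicle control set at 10000.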

[2] = biological target: T1, recombinant GST-TEAD1 proteins (209 to 426 a.a.) (Homo sapiens, UniProt P28347); assay: Evaluation of palmitoylation of TEAD protein; assay type: biochemical; settings: 5 μM compound, 15 minutes preincubation, 3 μM alkyne palmitoyl-CoA 30 minutes, pH 6.4, vs DMSO control
T1 construct: recombinant GST-TEAD1 proteins (209 to 426 a.a.)
T1 sequence (P28347 209-426): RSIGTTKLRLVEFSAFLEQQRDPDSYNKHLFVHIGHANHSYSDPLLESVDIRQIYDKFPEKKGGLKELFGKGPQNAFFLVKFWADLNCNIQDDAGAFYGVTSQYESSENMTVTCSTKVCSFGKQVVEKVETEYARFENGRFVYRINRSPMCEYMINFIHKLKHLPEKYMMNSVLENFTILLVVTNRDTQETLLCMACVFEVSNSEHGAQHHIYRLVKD
Procedure, shortened: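 GST-TEAD1 (aa 209–426) preincubated 15 min with 5 μM compound, then autopalmitoylated 30 min with 3 μM alkyne palmitoyl-CoA in 50 mM MES pH 6.4; stopped with 1% SDS. Click biotinylation, SDS-PAGE and streptavidin-HRP blot; band intensity relative to DMSO control, normalised to anti-GST signal.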

[3] = test system: NF2-deficient mesothelioma cell line NCI-H226; assay: Evaluation of inhibition of cancer cell proliferation (CellTiter-Glo); assay type: cell-based; settings: Homo sapiens, 120 h, NCI-H226 cells, five days treatment, 2% FBS, read-out: Cancer cell growth inhibition NCI-H226 (GI50)
Experimental: The NF2-deficient mesothelioma cell line NCI-H226 was purchased from ATCC (#CRL-5826). NCI-H226 cells were cultured in RRPMI medium (ATCC) containing penicillin (100 units/mL), streptomycin (100 μg/mL) and 10% fetal bovine serum (FBS) at 37° C. and 5% CO2.
In 24 hours after dispensing said NCI-H226 cells into a 96-well plate, the cell culture medium was removed all, and then each compound corresponding to a certain concentration section (0.01, 0.05, 0.1, 0.5, 1, 5, 10 μM) or a vehicle solvent (final 1% DMSO) was diluted with a culture medium containing 2% FBS, treated at 100 μL for each well, and then cultured at 37° C. and 5% CO2. In five days after said treatment, CellTiter-Glo@2.0 Reagent (Promega) was treated in the same amount as the culture medium to measure cell growth, and placed in a shaker for two minutes so as to be well mixed, after which the plate was cultured at room temperature for ten minutes to stabilize a luminescence signal. After that, for ATP measurement through an intracellular luciferase reaction, the luminescence signal was measured using a microplate reader (TECAN). The value of the […] (GI50) at the moment when the cell proliferation was reduced by half was derived using the SoftMax Pro 5.4.1 program, and the results are shown in table 10 below.

Row | Compound | inhibition at 0.2 µM [1] | inhibition at 5 µM [2] | GI50 [3] | % of inhibition of TRE luciferase at 0.2 μM [1] | % of inhibition of TEAD1 palmitoylation at 5 μM [2]
1 | C=CC(=O)Nc1cnc2c(c1)c(C)cn2Cc1ccc(C(F)(F)F)cc1 [Compound 3, N-(3-methyl-1-(4-(trifluoromethyl)benzyl)-1H-pyrrolo[2,3-b]pyridin-5-yl)acrylamide] | > 50% | > 80% | 70 nM | – | –
2 | C=CC(=O)Nc1cnc2c(c1)c(C)cn2-c1ccc(C(F)(F)F)cc1 [Compound 27, N-(3-methyl-1-(4-(trifluoromethyl)phenyl)-1H-pyrrolo[2,3-b]pyridin-5-yl)acrylamide] | > 50% | > 80% | 80 nM | – | –
3 | C=CC(=O)Nc1cnc2c(c1)c(Br)cn2Cc1ccc(C(F)(F)F)cc1 [Compound 40, N-(3-bromo-1-(4-(trifluoromethyl)benzyl)-1H-pyrrolo[2,3-b]pyridin-5-yl)acrylamide] | > 50% | > 80% | 220 nM | – | –
4 | C=CC(=O)Nc1cnc2c(c1)c(C)nn2-c1ccc(C(F)(F)F)cc1 [Compound 42, N-(3-methyl-1-(4-(trifluoromethyl)phenyl)-1H-pyrazolo[3,4-b]pyridin-5-yl)acrylamide] | > 50% | > 80% | 10 nM | – | –
5 | C=CC(=O)Nc1cnc2c(c1)c(Cl)cn2Cc1ccc(C(F)(F)F)cc1 [Compound 43, N-(3-chloro-1-(4-(trifluoromethyl)benzyl)-1H-pyrrolo[2,3-b]pyridin-5-yl)acrylamide] | > 50% | > 80% | 220 nM | – | –
6 | C=CC(=O)Nc1cnc2c(c1)c(C)cn2-c1cccc(C(F)(F)F)c1 [Compound 50, N-(3-methyl-1-(3-(trifluoromethyl)phenyl)-1H-pyrrolo[2,3-b]pyridin-5-yl)acrylamide] | > 50% | > 80% | 280 nM | – | –
7 | C=CC(=O)Nc1cnc2c(c1)c(C)cn2-c1ccc(Cl)cc1 [Compound 54, N-(1-(4-chlorophenyl)-3-methyl-1H-pyrrolo[2,3-b]pyridin-5-yl)acrylamide] | > 50% | 40 to 80% | 170 nM | – | –
8 | C=CC(=O)Nc1cnc2c(c1)c(C)nn2-c1ccc(Cl)cc1 [Compound 65, N-(1-(4-chlorophenyl)-3-methyl-1H-pyrazolo[3,4-b]pyridin-5-yl)acrylamide] | > 50% | > 80% | 50 nM | – | –
9 | C=CC(=O)Nc1cnc2c(c1)c(C)nn2-c1ccc(OC(F)(F)F)cc1 [Compound 66, N-(3-methyl-1-(4-(trifluoromethoxy)phenyl)-1H-pyrazolo[3,4-b]pyridin-5-yl)acrylamide] | > 50% | > 80% | 50 nM | – | –
10 | C=CS(=O)(=O)Nc1cnc2c(c1)c(C)nn2-c1ccc(C(F)(F)F)cc1 [Compound 85, N-(3-methyl-1-(4-(trifluoromethyl)phenyl)-1H-pyrazolo[3,4-b]pyridin-5-yl)ethenesulfonamide] | > 50% | > 80% | – | – | –
11 | C=CC(=O)Nc1cnc2c(c1)c(C)nn2-c1ccc(C(F)(F)F)c(O)c1 [Compound 87, N-(1-(3-hydroxy-4-(trifluoromethyl)phenyl)-3-methyl-1H-pyrazolo[3,4-b]pyridin-5-yl)acrylamide] | < 30% | 40 to 80% | – | – | –
12 | CC=CC(=O)Nc1cnc2c(c1)c(C)nn2-c1ccc(C(F)(F)F)cc1 [Compound 88, N-(3-methyl-1-(4-(trifluoromethyl)phenyl)-1H-pyrazolo[3,4-b]pyridin-5-yl)but-2-enamide] | 30 to 50% | 40 to 80% | – | – | –
13 | C=CC(=O)Nc1cnc2c(c1)c(C)nn2-c1ccc(C(F)(F)F)s1 [Compound 89, N-(3-methyl-1-(5-(trifluoromethyl)thiophen-2-yl)-1H-pyrazolo[3,4-b]pyridin-5-yl)acrylamide] | > 50% | 40 to 80% | – | – | –
14 | C=CC(=O)N(C)c1cnc2c(c1)c(C)nn2-c1ccc(Cl)cc1 [Compound 91, N-(1-(4-chlorophenyl)-3-methyl-1H-pyrazolo[3,4-b]pyridin-5-yl)-N-methylacrylamide] | > 50% | > 80% | – | – | –
15 | C=CC(=O)Nc1cnc2c(c1)c(C)nn2-c1ccc(F)nc1 [Compound 93, N-(1-(6-fluoropyridin-3-yl)-3-methyl-1H-pyrazolo[3,4-b]pyridin-5-yl)acrylamide] | 30 to 50% | 40 to 80% | – | – | –
16 | C=CC(=O)Nc1cnc2c(c1)c(C)nn2-c1cccnc1 [Compound 94, N-(3-methyl-1-(pyridin-3-yl)-1H-pyrazolo[3,4-b]pyridin-5-yl)acrylamide] | < 30% | < 40% | – | – | –
17 | C=CC(=O)Nc1cnc2c(c1)c(C)nn2-c1ccc(Cl)c(Cl)c1 [Compound 96, N-(1-(3,4-dichlorophenyl)-3-methyl-1H-pyrazolo[3,4-b]pyridin-5-yl)acrylamide] | > 50% | 40 to 80% | – | – | –
18 | C=CC(=O)Nc1cnc2c(c1)c(C)nn2-c1ccc(C(F)(F)F)cn1 [Compound 97, N-(3-methyl-1-(5-(trifluoromethyl)pyridin-2-yl)-1H-pyrazolo[3,4-b]pyridin-5-yl)acrylamide] | > 50% | < 40% | – | – | –
19 | C=CC(=O)Nc1cnc2c(c1)c(C)nn2-c1ccc(O)cc1 [Compound 98, N-(1-(4-hydroxyphenyl)-3-methyl-1H-pyrazolo[3,4-b]pyridin-5-yl)acrylamide] | < 30% | < 40% | – | – | –
20 | C=CC(=O)Nc1cnc2c(c1)c(C)nn2-c1cnc(C(F)(F)F)c(C)c1 [Compound 99, N-(3-methyl-1-(5-methyl-6-(trifluoromethyl)pyridin-3-yl)-1H-pyrazolo[3,4-b]pyridin-5-yl)acrylamide] | > 50% | 40 to 80% | – | – | –
21 | C=CC(=O)Nc1cnc2c(c1)c(C)nn2-c1ccnc(C(F)(F)F)c1 [Compound 100, N-(3-methyl-1-(2-(trifluoromethyl)pyridin-4-yl)-1H-pyrazolo[3,4-b]pyridin-5-yl)acrylamide] | > 50% | < 40% | – | – | –
22 | C=CC(=O)Nc1cnc2c(c1)c(C)nn2-c1cnn(C(F)(F)F)c1 [Compound 101, N-(3-methyl-1-(1-(trifluoromethyl)-1H-pyrazol-4-yl)-1H-pyrazolo[3,4-b]pyridin-5-yl)acrylamide] | > 50% | 40 to 80% | – | – | –
23 | C=CC(=O)Nc1cnc2c(c1)c(C)nn2-c1ccc(N)cc1 [Compound 102, N-(1-(4-aminophenyl)-3-methyl-1H-pyrazolo[3,4-b]pyridin-5-yl)acrylamide] | < 30% | < 40% | – | – | –
24 | C=CC(=O)Nc1cnc2c(c1)c(C)nn2-c1ccc(OC(F)(F)F)nc1 [Compound 103, N-(3-methyl-1-(6-(trifluoromethoxy)pyridin-3-yl)-1H-pyrazolo[3,4-b]pyridin-5-yl)acrylamide] | > 50% | 40 to 80% | – | – | –
25 | C=CC(=O)Nc1cnc2c(c1)c(C)nn2-c1ccc(C#N)cc1 [Compound 104, N-(1-(4-cyanophenyl)-3-methyl-1H-pyrazolo[3,4-b]pyridin-5-yl)acrylamide] | > 50% | < 40% | – | – | –
26 | N-(1-(4-(trifluoromethyl)benzyl)-1H-pyrazolo[3,4-b]pyridin-5-yl)acrylamide [Compound 5] | – | – | – | A (>50% inhibition) | A (>80% inhibition)
